{
  "source": "patent US12508322B2",
  "about": "“MIR-145 micelles for mitigating atherosclerosis” (University of Southern California, priority 2021, dated 2025)",
  "key": {"[1]": {"assay": "Serum cholesterol quantification (HDL, LDL)", "format": "in vivo, mice", "details": "two months post injection", "procedure": "Serum cholesterol levels were quantified using a high density lipoprotein (HDL) and low density lipoprotein (LDL) quantification kit (Sigma-Aldrich). Following the manufacturer's protocol, HDL and LDL were separated in serum using precipitation buffer. HDL and LDL samples were subsequently incubated with Reaction Mixes and fluorescence (ex: 535 nm/em: 587 nm) was measured using a plate reader (Varioskan LUX, Thermo Fisher, Waltham, MA, USA)."}, "[2]": {"tested_on": "VSMC phenotype in plaques (α-SMA, CD68, RUNX2, eYFP)", "assay": "In vivo immunohistochemistry: cellular composition of aortic root plaques", "set-up": "species or system mice", "details": "one month after single dose", "procedure": "(§1) Subsequently, mice were fed a high fat diet (20-23% milkfat, 34% sucrose, 0.2% cholesterol, Teklad Envigo) for 2 weeks before intravenous tail vein injection of treatment (miR-145 micelles, miR-67 micelles, scrambled MCP-1 (NT) miR-145 micelles, free miR-145 (1 mg/kg miR or 0.7 mM total micelle), or PBS). Mice continued high fat diet for an additional 4 weeks or 8 weeks for short- and longer-term efficacy analyses. Mice were then euthanized via CO2 asphyxiation and perfused with PBS, 4% paraformaldehyde (PFA), and PBS again. Organs and aorta were carefully dissected and saved for additional analyses.\nAortic roots were cryosectioned as mentioned above. Tissue sections were blocked in 10% donkey serum with 1% BSA. Sections were subsequently stained with antibodies to GFP (Abcam ab6673), α-SMA (Abcam ab5694), CD68 (Abcam ab125212), and RUNX2 (Abcam ab192256) overnight at 4° C. Donkey anti-rabbit IgG Alexa Fluor 594 (Thermo Fisher, Waltham, MA, USA) and donkey anti-goat IgG Alex Fluor 488 (Thermo Fisher, Waltham, MA, USA) were used as secondary antibodies. Sections were counterstained with DAPI for the nuclei, mounted in ProLong Gold Antifade (Thermo Fisher, Waltham, MA, USA), and imaged using a confocal microscope (Nikon C2 CLSM, Nikon, Tokyo, Japan). Cells were then counted using ImageJ software. […]"}, "atherosclerotic plaques": {"tested_on": "atherosclerotic plaques", "assay": "Analysis of atherosclerotic lesions (aortic root H&E, en face Oil Red O) after a single IV dose", "format": "in vivo, mice", "procedure": "Male Myh11-CreER^T2 ROSA26 STOP-flox eYFP^+/+ Apoe^−/− mice and female Apoe^−/− mice were used for all studies as the Myh11 transgene is expressed only in male mice. Mice were genotyped by qPCR. Following previously reported methods, mice received ten intraperitoneal injections of 1 mg tamoxifen from 6 weeks of age to 8 weeks for 10 mg total of tamoxifen per 25 g of mouse body weight.\nas §1\nAtherosclerotic plaques were analyzed in two ways: 1) en face analysis of entire aorta with Oil Red O (ORO) lipid stain and 2) hematoxylin and eosin (H&E) stains of cross sections of aortic roots. Briefly, aortas were dissected from the root to the common iliac arteries. Excess adventitial fat was carefully removed and the aorta was fixed in 4% PFA overnight. The tissue was then cleaned in 78% methanol for 5 min before staining for 1 h with 0.2% ORO solution in methanol. The aortas were then washed twice with 78% methanol for 5 min each and cut open longitudinally before imaging with a stereomicroscope (Leica, Wetzlar, Germany). Quantification of positively stained lesions was done using ImageJ software (NIH, Bethesda, MD). Aortic roots were embedded in optimal cutting temperature compound (OCT) and flash frozen in 2-methylbutane and liquid nitrogen. Roots were sectioned at 10 μm thick sections and stained using H&E. Plaque and necrotic core area in three aortic root sections were quantified and averaged for each sample to obtain a mean±S.D. measurement."}, "miR-145": {"tested_on": "miR-145", "assay": "In vivo miR-145 expression in liver tissue (RT-qPCR)", "set-up": "species or system mice", "details": "one month post treatment", "procedure": "as §1\nAortic roots and liver tissue were obtained from treated mice. Tissues were weighed and lysed with Trizol (Invitrogen, Carlsbad, CA). miRNeasy Mini Kit (Qiagen, Hilden, Germany) was used to extract microRNA and the miScript II RT Kit (Qiagen, Hilden, Germany) was used to synthesize cDNA according to manufacturer's instructions. Real-time qRT-PCR was performed on the LightCycler 480 Real-Time PCR System ([…]) to evaluate miR-145 levels. RNU-6 was used as an internal control and the 2-AACT method was used to calculate relative expression changes."}, "[3]": {"details": "one month after single dose, 1 mg/kg miR IV"}},
  "data": [
    {"substance": "free miR-145: unformulated miR-145, 5′-GUCCAGUUUUCCCAGGAAUCCCU-3′ (SEQ ID NO: 2) (listed as RNA, chemistry not given here; listed as Homo sapiens)", "values": [
      {"measurement": "serum HDL level", "setting": "[1]", "value": "increases"},
      {"measurement": "overlap in eYFP and α-SMA signal (α-SMA+YFP+/YFP+)", "setting": "[2]", "value": "30.0±22.1", "unit": "%"},
      {"measurement": "α-SMA expression within plaques (α-SMA+/DAPI)", "setting": "[2]", "value": "40.1±30.7", "unit": "%"},
      {"measurement": "overall lesion area of the aorta (ORO en face)", "setting": "atherosclerotic plaques; [3]", "value": "7.0±1.3", "unit": "%"},
      {"measurement": "plaque area in the aortic root", "setting": "atherosclerotic plaques; [3]", "value": "2.1±0.9", "unit": "%"},
      {"measurement": "lesion area by en face ORO staining", "setting": "atherosclerotic plaques; two months after single dose", "value": "8.0±2.0", "unit": "%"},
      {"measurement": "plaque/lesional area in the aortic root", "setting": "atherosclerotic plaques; two months after single dose", "value": "10.8±5.0", "unit": "%"},
      {"measurement": "miR-145 expression in the liver, fold increase compared to PBS", "setting": "miR-145", "value": 1.5, "unit": "fold"}
    ]}
  ]
}
